Experiments:
Assay type in all cases: in vivo
[1] = test system: redroot pigweed (Amaranthus retroflexus, AMARE); assay: Pre-emerge test, greenhouse herbicide activity screening; settings: pre-emerge, 14 days after application, rating scale 0-100
Method in brief: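 Herbicidal damage is scored 0 (none) to 100 (complete plant death) two weeks after a simulated field spray. Rates span 15–1000 g ai/ha, delivered in acetone at 187 l/ha. For post-emergence treatments, plants have 2–3 leaves and the spray carries 0.25% v/v non-ionic surfactant.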

[2] = test system: barnyardgrass (Echinochloa crus-galli, ECHCG); assay: as above; settings: pre-emerge, 14 days after application, rating scale 0-100
Method in brief: (§1)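 Compounds in acetone were track-sprayed at 15–1000 g ai/ha: pre-emergence onto soil sown the previous day, then top-watered to incorporate and later bottom-watered; post-emergence onto 2–3 leaf plants with 0.25% v/v surfactant, bottom-watered only. Ratings on a 0–100 phytotoxicity scale were taken at day 14.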

[3] = test system: common ragweed (Ambrosia artemisizfolia L., AMBEL); assay: as above; settings: pre-emerge, 14 days after application, rating scale 0-100
Method in brief: as §1

[4] = test system: green foxtail (Setaria viridis, SETVI); assay: as above; settings: pre-emerge, 14 days after application, rating scale 0-100
Method in brief: as §1

[5] = test system: ivyleaf morningglory (Ipomoea hederacea, IPOHE); assay: as above; settings: pre-emerge, 14 days after application, rating scale 0-100
Method in brief: as §1

[6] = test system: johnsongrass (Sorghum halepense, SORHA); assay: as above; settings: pre-emerge, 14 days after application, rating scale 0-100
Method in brief: as §1

[7] = test system: lambsquarters (Chenopodium album, CHEAL); assay: as above; settings: pre-emerge, 14 days after application, rating scale 0-100
Method in brief: as §1

[8] = test system: large crabgrass (Digitaria sanguinalis, DIGSA); assay: as above; settings: pre-emerge, 14 days after application, rating scale 0-100
Method in brief: as §1

[9] = test system: sicklepod (Cassia obtusifolia, CASOB); assay: as above; settings: pre-emerge, 14 days after application, rating scale 0-100
Method in brief: as §1

[10] = test system: velvetleaf (Abutilon theophrasti, ABUTH); assay: as above; settings: pre-emerge, 14 days after application, rating scale 0-100
Method in brief: as §1

[11] = test system: field corn (Zea mays L., var. Dekalb 535, CORN); assay: Pre-emerge test, crop safety; settings: pre-emerge, 14 days after application, rating scale 0-100
Method in brief: (§2)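 Fourteen days after spraying, crop and weed injury was graded visually from 0, no effect, to 100, every plant dead. Test substances were dissolved in acetone and applied at 15–1000 g ai/ha with a flat-fan nozzle. Application was either pre-emergence, one day after sowing, or post-emergence at the 2–3 leaf stage.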

[12] = test system: upland rice (Oryza sp., var. Tebonnet, RICE); assay: Pre-emerge test, crop safety; settings: pre-emerge, 14 days after application, rating scale 0-100
Method in brief: as §2

[13] = test system: barnyardgrass (Echinochloa crus-galli, ECHCG); assay: Post-emerge test, greenhouse herbicide activity screening; settings: post-emerge, 14 days after application, rating scale 0-100
Method in brief: as §2

[14] = test system: green foxtail (Setaria viridis, SETVI); assay: as above; settings: post-emerge, 14 days after application, rating scale 0-100
Method in brief: as §2

[15] = test system: ivyleaf morningglory (Ipomoea hederacea, IPOHE); assay: as above; settings: post-emerge, 14 days after application, rating scale 0-100
Method in brief: as §2

[16] = test system: johnsongrass (Sorghum halepense, SORHA); assay: as above; settings: post-emerge, 14 days after application, rating scale 0-100
Method in brief: as §2

[17] = test system: lambsquarters (Chenopodium album, CHEAL); assay: as above; settings: post-emerge, 14 days after application, rating scale 0-100
Method in brief: as §2

[18] = test system: large crabgrass (Digitaria sanguinalis, DIGSA); assay: as above; settings: post-emerge, 14 days after application, rating scale 0-100
Method in brief: as §2

[19] = test system: redroot pigweed (Amaranthus retroflexus, AMARE); assay: as above; settings: post-emerge, 14 days after application
Method in brief: as §2

[20] = test system: sicklepod (Cassia obtusifolia, CASOB); assay: as above; settings: post-emerge, 14 days after application, rating scale 0-100
Method in brief: as §2

[21] = test system: velvetleaf (Abutilon theophrasti, ABUTH); assay: as above; settings: post-emerge, 14 days after application, rating scale 0-100
Method in brief: as §2

[22] = test system: field corn (Zea mays L., var. Dekalb 535, CORN); assay: Post-emerge test, crop safety; settings: post-emerge, 14 days after application, rating scale 0-100
Method in brief: (§3)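 Rating: 0–100 visual injury, 14 DAA. Application: acetone, 187 l/ha, 15–1000 g ai/ha, flat-fan track sprayer with nozzle 40–45 cm above soil or canopy. Post-emerge runs used 0.25% v/v surfactant on 2–3 leaf plants.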

[23] = test system: upland rice (Oryza sp., var. Tebonnet, RICE); assay: Post-emerge test, crop safety; settings: post-emerge, 14 days after application, rating scale 0-100
Method in brief: as §3

[24] = 63 g ai/ha, rating scale 0-100 (0 no damage, 100 complete death)
[25] = 250 g ai/ha, rating scale 0-100

Compound: CCCOC(=O)C(Cl)Cc1c(OCC)c(Cl)cc(F)c1-n1c(=O)cc(C(F)(F)F)n(C)c1=O (centres unmarked) [14-66]
- phytotoxicity rating AMARE ([1]; 63 g ai/ha): 100
- phytotoxicity rating AMARE ([1]; 250 g ai/ha): 100
- phytotoxicity rating ECHCG ([2]; 63 g ai/ha): 50
- phytotoxicity rating ECHCG ([2]; 250 g ai/ha): 100
- phytotoxicity rating AMBEL ([3]; 63 g ai/ha): 0
- phytotoxicity rating AMBEL ([3]; 250 g ai/ha): 0
- phytotoxicity rating SETVI ([4]; 63 g ai/ha): 20
- phytotoxicity rating SETVI ([4]; 250 g ai/ha): 100
- phytotoxicity rating IPOHE ([5]; 63 g ai/ha): 0
- phytotoxicity rating IPOHE ([5]; 250 g ai/ha): 60
- phytotoxicity rating SORHA ([6]; 63 g ai/ha): 0
- phytotoxicity rating SORHA ([6]; 250 g ai/ha): 30
- phytotoxicity rating CHEAL ([7]; 63 g ai/ha): 90
- phytotoxicity rating CHEAL ([7]; 250 g ai/ha): 100
- phytotoxicity rating DIGSA ([8]; 63 g ai/ha): 90
- phytotoxicity rating DIGSA ([8]; 250 g ai/ha): 100
- phytotoxicity rating CASOB ([9]; 63 g ai/ha): 0
- phytotoxicity rating CASOB ([9]; 250 g ai/ha): 0
- phytotoxicity rating ABUTH ([10]; 63 g ai/ha): 90
- phytotoxicity rating ABUTH ([10]; 250 g ai/ha): 100
- phytotoxicity rating CORN ([11]; 63 g ai/ha): 0
- phytotoxicity rating CORN ([11]; 250 g ai/ha): 0
- phytotoxicity rating RICE ([12]; 63 g ai/ha): 0
- phytotoxicity rating RICE ([12]; 250 g ai/ha): 20
- Post-emerge Herbicidal Activity ECHCG (phytotoxicity rating) ([13]; 63 g ai/ha): 100
- Post-emerge Herbicidal Activity ECHCG (phytotoxicity rating) ([13]; 250 g ai/ha): 100
- Post-emerge Herbicidal Activity SETVI (phytotoxicity rating) ([14]; 63 g ai/ha): 95
- Post-emerge Herbicidal Activity SETVI (phytotoxicity rating) ([14]; 250 g ai/ha): 100
- Post-emerge Herbicidal Activity IPOHE (phytotoxicity rating) ([15]; 63 g ai/ha): 70
- Post-emerge Herbicidal Activity IPOHE (phytotoxicity rating) ([15]; 250 g ai/ha): 90
- Post-emerge Herbicidal Activity SORHA (phytotoxicity rating) ([16]; 63 g ai/ha): 60
- Post-emerge Herbicidal Activity SORHA (phytotoxicity rating) ([16]; 250 g ai/ha): 80
- Post-emerge Herbicidal Activity CHEAL (phytotoxicity rating) ([17]; 63 g ai/ha): 80
- Post-emerge Herbicidal Activity CHEAL (phytotoxicity rating) ([17]; 250 g ai/ha): 99
- Post-emerge Herbicidal Activity DIGSA (phytotoxicity rating) ([18]; 63 g ai/ha): 100
- Post-emerge Herbicidal Activity DIGSA (phytotoxicity rating) ([18]; 250 g ai/ha): 100
- Post-emerge Herbicidal Activity AMARE (phytotoxicity rating) [19, 24]: 95
- Post-emerge Herbicidal Activity AMARE (phytotoxicity rating) [19, 25]: 100
- Post-emerge Herbicidal Activity CASOB (phytotoxicity rating) ([20]; 63 g ai/ha): 80
- Post-emerge Herbicidal Activity CASOB (phytotoxicity rating) ([20]; 250 g ai/ha): 90
- Post-emerge Herbicidal Activity ABUTH (phytotoxicity rating) ([21]; 63 g ai/ha): 100
- Post-emerge Herbicidal Activity ABUTH (phytotoxicity rating) ([21]; 250 g ai/ha): 100
- Post-emerge Herbicidal Activity CORN (crop damage rating) ([22]; 63 g ai/ha): 90
- Post-emerge Herbicidal Activity CORN (crop damage rating) ([22]; 250 g ai/ha): 100
- Post-emerge Herbicidal Activity RICE (crop damage rating) ([23]; 63 g ai/ha): 0
- Post-emerge Herbicidal Activity RICE (crop damage rating) ([23]; 250 g ai/ha): 10

Compound: COc1c(Cl)cc(F)c(-n2c(=O)cc(C(F)(F)F)n(C)c2=O)c1NNC(=O)c1ccccc1 [15-3]
- phytotoxicity rating AMARE ([1]; 63 g ai/ha): 100
- phytotoxicity rating AMARE ([1]; 250 g ai/ha): 100
- phytotoxicity rating ECHCG ([2]; 63 g ai/ha): 100
- phytotoxicity rating ECHCG ([2]; 250 g ai/ha): 100
- phytotoxicity rating AMBEL ([3]; 63 g ai/ha): 100
- phytotoxicity rating AMBEL ([3]; 250 g ai/ha): 100
- phytotoxicity rating SETVI ([4]; 63 g ai/ha): 100
- phytotoxicity rating SETVI ([4]; 250 g ai/ha): 100
- phytotoxicity rating IPOHE ([5]; 63 g ai/ha): 100
- phytotoxicity rating IPOHE ([5]; 250 g ai/ha): 100
- phytotoxicity rating SORHA ([6]; 63 g ai/ha): 100
- phytotoxicity rating SORHA ([6]; 250 g ai/ha): 100
- phytotoxicity rating CHEAL ([7]; 63 g ai/ha): 100
- phytotoxicity rating CHEAL ([7]; 250 g ai/ha): 100
- phytotoxicity rating DIGSA ([8]; 63 g ai/ha): 100
- phytotoxicity rating DIGSA ([8]; 250 g ai/ha): 100
- phytotoxicity rating CASOB ([9]; 63 g ai/ha): 100
- phytotoxicity rating CASOB ([9]; 250 g ai/ha): 100
- phytotoxicity rating ABUTH ([10]; 63 g ai/ha): 100
- phytotoxicity rating ABUTH ([10]; 250 g ai/ha): 100
- phytotoxicity rating CORN ([11]; 63 g ai/ha): 90
- phytotoxicity rating CORN ([11]; 250 g ai/ha): 100
- phytotoxicity rating RICE ([12]; 63 g ai/ha): 95
- phytotoxicity rating RICE ([12]; 250 g ai/ha): 100
- Post-emerge Herbicidal Activity ECHCG (phytotoxicity rating) ([13]; 63 g ai/ha): 10
- Post-emerge Herbicidal Activity ECHCG (phytotoxicity rating) ([13]; 250 g ai/ha): 90
- Post-emerge Herbicidal Activity SETVI (phytotoxicity rating) ([14]; 63 g ai/ha): 30
- Post-emerge Herbicidal Activity SETVI (phytotoxicity rating) ([14]; 250 g ai/ha): 80
- Post-emerge Herbicidal Activity IPOHE (phytotoxicity rating) ([15]; 63 g ai/ha): 95
- Post-emerge Herbicidal Activity IPOHE (phytotoxicity rating) ([15]; 250 g ai/ha): 100
- Post-emerge Herbicidal Activity SORHA (phytotoxicity rating) ([16]; 63 g ai/ha): 0
- Post-emerge Herbicidal Activity SORHA (phytotoxicity rating) ([16]; 250 g ai/ha): 90
- Post-emerge Herbicidal Activity CHEAL (phytotoxicity rating) ([17]; 63 g ai/ha): 95
- Post-emerge Herbicidal Activity CHEAL (phytotoxicity rating) ([17]; 250 g ai/ha): 100
- Post-emerge Herbicidal Activity DIGSA (phytotoxicity rating) ([18]; 63 g ai/ha): 20
- Post-emerge Herbicidal Activity DIGSA (phytotoxicity rating) ([18]; 250 g ai/ha): 80
- Post-emerge Herbicidal Activity AMARE (phytotoxicity rating) [19, 24]: 95
- Post-emerge Herbicidal Activity AMARE (phytotoxicity rating) [19, 25]: 100
- Post-emerge Herbicidal Activity CASOB (phytotoxicity rating) ([20]; 63 g ai/ha): 70
- Post-emerge Herbicidal Activity CASOB (phytotoxicity rating) ([20]; 250 g ai/ha): 100
- Post-emerge Herbicidal Activity ABUTH (phytotoxicity rating) ([21]; 63 g ai/ha): 100
- Post-emerge Herbicidal Activity ABUTH (phytotoxicity rating) ([21]; 250 g ai/ha): 100
- Post-emerge Herbicidal Activity CORN (crop damage rating) ([22]; 63 g ai/ha): 25
- Post-emerge Herbicidal Activity CORN (crop damage rating) ([22]; 250 g ai/ha): 80
- Post-emerge Herbicidal Activity RICE (crop damage rating) ([23]; 63 g ai/ha): 50
- Post-emerge Herbicidal Activity RICE (crop damage rating) ([23]; 250 g ai/ha): 90
